The text below walks through data of patent US9359378B2, “Substituted oxazolo[3,4-a]pyrazines as pharmaceutcals” (BIOLAB SANUS FARMACÊUTICA LTDA., priority 2014, dated 2016).

For this experiment, the system named is rabbit's corpus cavernosum. The experiment is described as follows: Relaxing effect in isolated rabbit's corpus cavernosum strips pre-contracted with phenylephrine (isometric tension). Details: species or system New Zealand White rabbits. Particulars: strips pre-contracted with 1 μM PE; FIGS. 12 and 13. As to the method: For this study, New Zealand White rabbits (2 to 3.5 kg) were used to obtain penile tissue which was excised and transferred to a chilled Krebs solution. For this study, we used cavernosum strips (CC) of the penile tissue of New Zealand White rabbits. The strips were mounted in 10 ml tissue incubation chambers containing Krebs solution at 37° C., pH occurring between 7.3 and 7.5; continuously bubbled with a mixture of 95% oxygen (O2) and 5% carbon dioxide (CO2). An initial tension of 10 mN were applied on the tissues, followed by a 60 minute stabilization period. Changes in tension (isometric force) were obtained using isometric transducers (ADInstruments, Australia) and recorded in a data acquisition system PowerLab 4/30 (Chart Software, version 7.3.7, ADInstruments, MA, USA for BL-230 and version 7.0 ADInstruments, MA for the BL-236). […] Cumulative curve responses to the concentration of BL-230 compounds and tadalafil (0.001 to 10 μM) were obtained in the pre-contracted rabbit corpus cavernosum strips with 1 μM PE.

Regarding `CN1CC(=O)N2[C@H](c3ccc4c(c3)OCO4)c3[nH]c4ccccc4c3C[C@@H]2C1=O` [tadalafil, reference compound], the “percentage of relaxation in rabbit's corpus cavernosum” value is recorded as “around 100%”.
